Measurements from PubChem BioAssay AID179 (DTP/NCI, 2004).
Calls of active or inactive are those of the source.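 The calls were made as follows: active = compounds giving half or more protection of infected cells from virus-caused growth loss, again on retest; inactive = the rest.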 Where a SMILES comes first, the peptide text is derived from it. [ ]: non-standard residue; d: D form. The star is where a group is joined. ONb = O=[N+]([O-])c1ccc(CO*)cc1; AllylGly = C=CC[CH](N)C(=O)O; Boc = CC(C)(C)OC(=O)*

Test system: CEM cells HIV-1 protection, formazan growth assay
Assay: NCI AIDS Antiviral Assay
Conditions: for IC50: measured here: growth of uninfected CEM cells
Procedure, shortened: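 Soluble formazan readout of cell growth; CEM cells ± HIV-1; 5 drug concs. ≥50% protection → retest; ≥50% again = moderately active; reproducible 100% = confirmed active.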

| Compound | EC50 [µM] | IC50 [µM] | outcome |
| --- | --- | --- | --- |
| COc1ccc2c(c1)c1c(n2CCN2CCCCC2)-c2cccc(OC)c2CC1 | > 200 | 11.2 | – |
| Nc1c(N=Nc2ccc(-c3ccc(N=Nc4cc(S(=O)(=O)O)c5ccccc5c4O)cc3)cc2)cc(S(=O)(=O)O)c2ccccc12 | 9.12 | > 100 | – |
| CN(CCn1cnc2c1c(=O)n(C)c(=O)n2C)C1CCCCC1 | > 200 | > 200 | – |
| C=CCC(NC(=O)OC(C)(C)C)C(=O)NC(CCC(=O)OCc1ccc([N+](=O)[O-])cc1)C(N)=O (stereo not drawn) (Boc-[AllylGly]-Glu(ONb)-NH2; configuration not given here) | > 200 | 102 | – |
| CCOC(=O)CCC1(C(=O)OCC)CCCC1=O (stereo not drawn) | > 263 | > 263 | – |
| C=C1CC(Cn2ccc(=O)[nH]c2=O)(c2ccc(Cl)cc2)OC1=O (stereo not drawn) | > 20 | 0.912 | – |
| Cc1ccc(S(=O)(=O)NC2C(=O)c3ccccc3C(=O)C2n2ccnc2)cc1 (stereo not drawn) | > 200 | 87.1 | – |
| CN/N=C(/Cc1occc(=O)c1O)C(=O)Nc1ccc(C)c(C)c1 | > 288 | > 288 | – |
| C=CC1CCC[N+]1(CC(=O)OCC)Cc1ccccc1 (stereo not drawn) | > 200 | > 200 | – |
| COc1ccc(C2c3cc4c(cc3OC(NNc3ccccc3)C2C)OCO4)cc1 (stereo not drawn) | > 200 | 11.7 | – |
| COc1ccc(C2=Nc3c(nc(SC)[nH]c3=O)NC(c3ccccc3)C2)cc1 (stereo not drawn) | – | – | inactive |
| CCC[CH2][Sn]([CH2]CCC)([O]C(=O)c1ccc(C)c(N)c1)[O]C(=O)c1ccc(C)c(N)c1 | > 18.6 | 0.457 | – |
| COC(=O)C1C(C(=O)OC)C2(OC)c3ccccc3-c3ccccc3C12 (stereo not drawn) | > 200 | 21.4 | – |
| Nc1ncnc2c1ncn2C1OC(CO)C(O)C1O (stereo not drawn) | – | – | inactive |
| O=C1Nc2cccc3c2N(CCC3)C2=C1CCC2 | > 200 | > 200 | – |
| CN(C)c1ccc(/C=C(\C#N)c2ccc(F)cc2)cc1 | > 20 | 1.07 | – |
| Cn1c(=O)c2c(-c3ccccc3)onc2n(C)c1=O | > 200 | 11 | – |
| CC(C)(C)C#CI1OC(=O)c2ccccc21 | > 200 | 2.14 | – |
| Nc1ccc2c(c1)C(=O)N1CCC[C@H]1C(=O)N2 | > 200 | > 200 | – |
| Oc1ccc(C2SCc3nc4ccccc4n32)cc1 (stereo not drawn) | > 26.9 | > 26.9 | – |
| CCC1C(c2cc(OC)c(OC)c(OC)c2)c2cc3c(cc2OC1N1CCCC1)OCO3 (stereo not drawn) | > 200 | 1.12 | – |
| NC(c1ccccc1)P(=O)(OCc1ccc([N+](=O)[O-])cc1)OCc1ccc([N+](=O)[O-])cc1 (stereo not drawn) | > 87.1 | 53.7 | – |

| Compound | EC50 [µM] | IC50 [µM] | outcome |
| --- | --- | --- | --- |
| c1scc2c1COCCOCCOCCOCCOCCOC2 | > 724 | 646 | – |
| C[Se]CCC1OC[C@H]2O[C@@H](n3cc(C)c(=O)[nH]c3=O)C[C@H]2N1O (stereo partly drawn) | – | – | active |
| O=C1/C(=C/c2cccs2)NC(=S)N1CN1CCOCC1 | > 200 | 34.7 | – |
| COC(=O)C(Cc1ccccc1)NC(=O)C(CCC(=O)OCc1ccccc1)NC(=O)OC(C)(C)C (stereo not drawn) | > 200 | 28.8 | – |
| NC(=O)Cn1c(=O)oc2cc(C(=O)CN3CCOCC3)ccc21 | > 200 | > 200 | – |
| Cc1[nH]c2ccccc2c1CC/C(=N\Nc1ccccc1)c1ccccc1 | – | – | inactive |
| CN(C)c1ccc(/C=C(\C#N)c2cccc(F)c2)cc1 | > 2 | 0.141 | – |
| O=C1NC23CC=CCC12CCC3 (stereo not drawn) | > 1230 | > 1230 | – |
| C/C=C/C=C\C=C/C(O)C(C)C(CCC(C)C1OC(=O)C=CC1C)OP(=O)(O)O (stereo not drawn) | > 2 | 0.129 | – |
| S=c1n(-c2ccc(Cl)cc2)c2nc3ccccc3nc(/c2=N\Nc2ccccc2)n1-c1ccc(Br)cc1 | > 61.7 | 31.6 | – |
| O=C(N/N=C1\CCc2ccccc2C1)N/N=C1\CCc2ccccc2C1 | > 200 | 51.3 | – |
| O=C1Cc2c([nH]c3cc(Br)ccc23)-c2ccccc2N1 | > 200 | 8.91 | – |
| Cc1ccc(S(=O)(=O)/N=S(\C)c2ccc(Cl)cc2)cc1 (stereo not drawn) | > 759 | 178 | – |
| COc1ccc2cc1Oc1ccc(cc1)C[C@@H]1c3cc(c(OC)cc3CCN1C)Oc1c(O)c(OC)cc3c1CCN(C)C3C2 (stereo partly drawn) | – | – | inactive |
| NC1(C(=O)N2CCCC2C(=O)O)CCCC1 (stereo not drawn) (HELM PEPTIDE1{[NC1(C(=O)[*:2])CCCC1].[O=C(O)C1CCCN1[*:1]]}$$$$V2.0) | > 200 | > 200 | – |
| CC(=O)C1=CN=C2C(=O)N(c3ccccc3)N(C)C12C (stereo not drawn) | > 200 | > 200 | – |
| C=CCN1C(=O)CS/C1=N/NC(=O)C(O)(c1ccccc1)c1ccccc1 | > 200 | 129 | – |
| COc1cc2ccc(=O)oc2cc1O | > 339 | 55 | – |
| O=C(Cc1ccccc1)NN1C(=O)/C(=C\c2ccccc2O)SC1=Nc1ccccc1 | > 219 | 174 | – |
| CCN(CC)C(=O)C[n+]1c2ccccc2n2cc(N)ccc21 | > 200 | > 200 | – |
| CCOC(=O)NC(Nc1ncccn1)(C(=O)OCC)C(F)(F)F (stereo not drawn) | > 200 | > 200 | – |
| CC(C)c1ccc(C(c2ccc(OCC(=O)O)cc2)c2ccc(C(C)C)cc(=O)c2O)c(O)c(=O)c1 | – | – | inactive |

| Compound | EC50 [µM] | IC50 [µM] | outcome |
| --- | --- | --- | --- |
| CC(=O)NC1=NC(=O)/C(=C/c2ccccc2Cl)N1C | > 200 | > 200 | – |
| Cn1c(=O)c2c(nc(N/N=c3\scc(-c4ccc(Cl)cc4)n3Cc3ccccc3)n2C)n(C)c1=O | > 200 | 10.7 | – |
| CN(C)/C=C\c1c([N+](=O)[O-])ncn1C | > 200 | > 200 | – |
| COC(=O)CN1SC2(SC13C(C)(C)C(=O)C3(C)C)C(C)(C)C(=O)C2(C)C | > 200 | 50.1 | – |
| CNc1cc(OCc2ccccc2)c(OC)cc1C(=O)N1CCC[C@H]1CO | > 200 | 42.7 | – |
| CCCN(CCCc1ccccc1)CCc1ccc2[nH]c(=S)[nH]c2c1 | > 200 | 35.5 | – |
| O=C1NC(=O)/C(=C\c2cccc(Br)c2)N1 | > 200 | 105 | – |
| N#CCCC(CC#N)S(=O)(=O)O (stereo not drawn) | > 200 | > 200 | – |
| Cc1cn(CC2=NCC(C)(C)CN2)c(=O)[nH]c1=O | > 200 | > 200 | – |
| Cn1ccc(C(=O)NCCN(CCNC(=O)c2ccn(C)c(=O)c2O)CCNC(=O)c2cccc(=O)n2O)c(O)c1=O | > 200 | > 200 | – |
| CCOC(=O)/C(F)=C/c1ccc(C)cc1 | > 126 | > 126 | – |
| C=C[C@@]1(O)CC[C@@H](C(C)(C)C)C[C@H]1CC(=C)Br | – | – | inactive |
| O=c1oc(-c2ccccc2)nnc1-c1ccccc1 | > 178 | > 178 | – |
| CCCNC(=S)N/N=C(\C)c1ccc(S(=O)(=O)N(C)c2ccccc2)cc1 | > 200 | > 200 | – |
| CC1=C[C@H]2C[C@@]3(C)O[C@@H]([C@]4(C)CC[C@H]([C@@H](C)C(=O)O)OO4)CC3C(C)(C)[C@H]2CC1 (stereo partly drawn) | – | – | inactive |
| O=C(O/N=C1/CCC/C1=C\c1ccccc1)c1ccccc1 | – | – | inactive |
| Cc1cccc2c(=O)c3c(O)cc(O)cc3n(C)c12 | 145 | > 200 | – |
| COc1ccc(Nc2c3sc4cc(OC)ccc4nc-3c3ccccc3c2=O)cc1 | > 100 | > 100 | – |
| O=C1c2ccccc2OC(Cl)(c2ccccc2)C1Cl (stereo not drawn) | > 200 | 31.6 | – |
| CCN(CCN1C(=O)C2CCCCC2C1=O)c1ccc(N=O)c(C)c1 (stereo not drawn) | > 200 | 1.78 | – |
| CCCN1CCC(=O)N(CCC(F)(F)C(F)(F)C(F)(F)C(F)(F)C(F)(F)C(F)(F)F)C1=S | > 50.1 | > 50.1 | – |
| O=C(NCCCNC(=O)c1ccc2cc(O)ccc2c1)c1ccc2cc(O)ccc2c1 | – | – | inactive |

| Compound | EC50 [µM] | IC50 [µM] | outcome |
| --- | --- | --- | --- |
| COc1ccc(N=Nc2c(C)c(C#N)c(=S)n(C3OC(CO)C(O)C(O)C3O)c2-c2ccccc2)cc1 (stereo not drawn) | > 200 | 28.2 | – |
| CN1CC[C@@H](c2c(O)cc(O)c3c(=O)cc(-c4ccccc4Cl)oc23)[C@@H](O)C1 | 0.01 | 0.0468 | – |
| CN(C)c1ccc(/C=C(\C#N)c2ccc(Br)cc2Br)cc1 | > 200 | 3.39 | – |
| C=C[C@H]1[C@@H]2CCC3=CC(=O)CC[C@@H]3C2CC[C@]1(C)C(=O)O (stereo partly drawn) | > 200 | > 200 | – |
| O=c1cc(-c2ccccc2)oc2ccc(-c3ccc4oc(-c5ccccc5)cc(=O)c4c3)cc12 | > 200 | 27.5 | – |
| CCCCCCCCCCCCCCCCCC(=O)OCC(C[As](=O)(O)O)OC(=O)CCCCCCCCCCCCCCCCC (stereo not drawn) | > 17.8 | > 17.8 | – |
| c1ccc2c(c1)Cc1c(Cc3csc4ccccc34)ccc3cccc-2c13 | > 7.24 | > 7.24 | – |
| COc1cc2c(cc1OC)C13CC(=O)N(C(C)=O)N1CCCN3C2=O (stereo not drawn) | > 145 | > 145 | – |
| O=C(O)c1ccccc1N=NNc1ccc(/C=C/c2ccc(N=NNc3ccccc3C(=O)O)cc2S(=O)(=O)O)c(S(=O)(=O)O)c1 | 6.31 | 389 | – |
| N#Cc1c(-c2ccco2)cc(-c2ccc(NCc3nc4ccccc4[nH]3)cc2)nc1N | > 12.9 | > 12.9 | – |
| O=c1[nH]n(Cc2ccccc2Cl)c2ccc([N+](=O)[O-])cc12 | > 200 | 69.2 | – |
| Cn1ccnc1.[O-][Cl+3]([O-])([O-])[O-].[Pt+2].c1ccc(-c2cccc(-c3ccccn3)n2)nc1 | > 200 | 13.5 | – |
| C=C(C)P(=O)(OC(C)CCl)OC(C)CCl (stereo not drawn) | > 200 | > 200 | – |
| Cc1nc(C)c(C(=O)NNC(=O)C[n+]2ccccc2)cc1C(=O)NNC(=O)C[n+]1ccccc1 | > 200 | > 200 | – |
| O=C(O)C1=C(O)C(C(=O)O)C23CCCCCCCCCCC12C(C(=O)O)C(O)=C3C(=O)O (stereo not drawn) | – | – | inactive |
| CC1C2Cc3ccc(O)cc3C1(C)CCN2CC1CC1 (stereo not drawn) | > 200 | > 200 | – |
| COC1OC(COC(=O)c2ccccc2)C(OC(=O)c2ccccc2)C1NC(C)=O (stereo not drawn) | > 200 | > 200 | – |
| O=C1OCCN(c2cccc(Cl)c2)CCO1 | – | – | inactive |
| COC1/C=C/OC2(C)Oc3c(C)c(O)c4c(O)c(c(C=NNC(=O)C(CO)(c5ccccc5)c5ccccc5)c(O)c4c3C2=O)NC(=O)/C(C)=C/C=C/C(C)C(O)C(C)C(O)C(C)C(OC(C)=O)C1C (stereo not drawn) | > 200 | 32.4 | – |
